According to US9376442B2, “Methylpyrrolopyrimidinecarboxamides” (Takeda GmbH, priority 2009, dated 2016):

Legend:
PDE5A1 = target: T1, PDE5A1 (Homo sapiens, UniProt O76074); test: Inhibition of type 5 phosphodiesterase (PDE5) activity, modified SPA test with human platelet lysate; assay type: biochemical; settings: 0.5 μM cGMP, read-out: PDE5A1 inhibitory values [measured as −log IC50 (mol/l)] (converted)
T1 construct: from tissue; host or cells: human platelets from fresh donor blood (10,000 x g supernatant of sonicated lysate)
Outline: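 Scintillation proximity assay with [3H]cGMP tracer at 0.5 μM total cGMP, stopped after 15 min with beads containing IBMX. PDE3 and PDE2 activities suppressed with motapizone (1 μM) and a PDE2 inhibitor (10 nM). Human platelet supernatant served as the enzyme, with compound preincubated 5 min at 37° C; IC50 values from concentration-effect curves.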

PDE4B1 = target: T2, PDE4B1 (Homo sapiens, UniProt Q07343); test: Inhibition of type 4 phosphodiesterase (PDE4) activity, modified SPA test with recombinant PDE4B1 expressed in SF21 insect cells; assay type: biochemical; settings: recombinant PDE4B1, 0.5 μM cAMP, read-out: PDE4B1 inhibitory values [measured as −log IC50 (mol/l)] (converted)
T2 construct: made in house; host or cells: SF21 insect cells (baculovirus; pCRBac vector), 1000 x g supernatant of homogenate
Protocol: Method for Measuring Inhibition of the Type 4 Phosphodiesterase (PDE4) Activity:
The PDE4B1 (GB no. L20966) was a gift of Prof. M. Conti (Stanford University, USA). It was amplified from the original plasmid (pCMV5) via PCR with primers Rb18 (5′-[…]-3′) and Rb10 (5′-[…]-3′) and cloned into the pCRBac vector (Invitrogen, Groningen, NL).
The recombinant baculovirus was prepared by means of homologous recombination in SF9 insect cells. The expression plasmids were cotransfected with Baculo-Gold DNA (Pharmingen, Hamburg) using a standard protocol (Pharmingen, Hamburg). Wt virus-free recombinant virus supernatants were selected using plaque assay methods. After that, high-titre virus supernatants were prepared by amplifying 3 times. PDE4B1 was expressed in SF21 cells by infecting 2×10^6 cells/ml with an MOI (multiplicity of infection) between 1 and 10 in the serum-free medium Insect Express Sf9-S2 (PAA, Pasching, Austria). The cells were cultured at 28° C. for 48-72 hours, after which they were pelleted for 5-10 min at 1000×g and 4° C.
The SF21 insect cells were resuspended, at a concentration of approx. 10^7 cells/ml, in ice-cold (4° C.) homogenization buffer (20 mM Tris, pH 8.2, containing the following additions: 140 mM NaCl, 3.8 mM KCl, 1 mM EGTA, 1 mM MgCl2, 10 mM (3-mercaptoethanol, 2 mM benzamidine, 0.4 mM Pefablock, 10 μM leupeptin, 10 μM pepstatin A, 5 μM trypsin inhibitor) and disrupted by ultrasonication. The homogenate was then centrifuged for 10 min at 1000×g and the supernatant was stored at −80° C. until subsequent use (see below). The protein content was determined by the Bradford method (BioRad, Munich) using BSA as the standard.
PDE4B1 activity was inhibited by the compounds according to the present subject matter in a modified SPA (scintillation proximity assay) test, supplied by Amersham Biosciences (see procedural instructions “phosphodiesterase [3H]cAMP SPA enzyme assay, code TRKQ 7090”), carried out in 96-well microtitre plates (MTP's). The test volume is 100 μl and contains 20 mM Tris buffer (pH 7.4), 0.1 mg/ml of BSA, 5 mM Mg^2+, 0.5 μM cAMP (including about 50,000 cpm of [3H]cAMP), 1 μl of the respective substance dilution in DMSO and sufficient recombinant PDE (1000×g supernatant, see above) to ensure that 10-20% of the cAMP is converted under the said experimental conditions. […] After a preincubation of 5 min at 37° C., the reaction is started by adding the substrate (cAMP) and the assays are incubated for a further 15 min; after that, they are stopped by adding SPA beads (50 μl). In accordance with the manufacturer's instructions, the SPA beads had previously been resuspended in water, but were then diluted 1:3 (v/v) in water; the diluted solution also contains 3 mM IBMX to ensure a complete PDE activity stop. After the beads have been sedimented (>30 min), the MTP's are analyzed in commercially available luminescence detection devices. The corresponding IC50 values of the compounds for the inhibition of PDE4B1 activity are determined from the concentration-effect curves by means of non-linear regression.

T2 sequence (Q07343 whole entry): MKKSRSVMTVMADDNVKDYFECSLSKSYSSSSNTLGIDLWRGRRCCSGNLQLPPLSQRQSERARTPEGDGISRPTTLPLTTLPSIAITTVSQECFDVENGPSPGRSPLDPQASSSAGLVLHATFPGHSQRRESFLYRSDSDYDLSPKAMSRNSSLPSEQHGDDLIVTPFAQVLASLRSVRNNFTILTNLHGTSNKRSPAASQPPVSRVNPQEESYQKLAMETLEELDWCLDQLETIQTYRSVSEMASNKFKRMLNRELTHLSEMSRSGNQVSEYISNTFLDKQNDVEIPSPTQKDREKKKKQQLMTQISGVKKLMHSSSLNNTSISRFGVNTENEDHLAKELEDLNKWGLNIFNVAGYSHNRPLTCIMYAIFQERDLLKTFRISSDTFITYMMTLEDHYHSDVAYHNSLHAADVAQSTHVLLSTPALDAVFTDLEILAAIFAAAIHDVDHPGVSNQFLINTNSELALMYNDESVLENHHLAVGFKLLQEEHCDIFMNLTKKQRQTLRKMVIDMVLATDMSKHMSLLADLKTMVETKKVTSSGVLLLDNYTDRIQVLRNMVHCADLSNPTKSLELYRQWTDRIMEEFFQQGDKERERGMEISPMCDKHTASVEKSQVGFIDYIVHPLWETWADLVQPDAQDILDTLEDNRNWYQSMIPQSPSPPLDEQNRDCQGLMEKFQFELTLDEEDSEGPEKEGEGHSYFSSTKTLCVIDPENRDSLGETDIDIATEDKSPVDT

Row | IC50 (PDE5A1) | IC50 (PDE4B1) | Compound
1 | < 1 nM | < 100 nM | COCC(=O)N[C@H]1CC[C@H](NC(=O)c2c(C)[nH]c3c(-c4cc(C(F)F)ccc4OCC4CC4)ncnc23)C1 [Example P91, 4-[2-(Cyclopropylmethoxy)-5-(difluoromethyl)phenyl]-N-{(1S,3S)-3-[(methoxyacetyl)amino]cyclopentyl}-6-methyl-5H-pyrrolo[3,2-d]pyrimidine-7-carboxamide]
2 | < 1 nM | 100 to 1000 nM | COc1ccc(OCC2CC2)c(-c2ncnc3c(C(=O)N[C@H]4CC[C@H](NC(=O)CO)CC4)c(C)[nH]c23)c1 [Example F43, 4-[2-(Cyclopropylmethoxy)-5-methoxyphenyl]-N-[trans-4-(glycoloylamino)cyclohexyl]-6-methyl-5H-pyrrolo[3,2-d]pyrimidine-7-carboxamide]
3 | 1 to 10 nM | 100 to 1000 nM | Cc1[nH]c2c(-c3cc(F)ccc3OCC3CC3)ncnc2c1C(=O)NC1CCN(C(=O)CO)CC1 [Example F23, 4-(2-Cyclopropylmethoxy-5-fluoro-phenyl)-6-methyl-5H-pyrrolo[3,2-d]pyrimidine-7-carboxylic acid [1-(2-hydroxy-acetyl)-piperidin-4-yl]-amide]
4 | < 1 nM | < 100 nM | CCC(=O)N[C@@H]1CC[C@@H](NC(=O)c2c(C)[nH]c3c(-c4cc(C(F)F)ccc4OCC4CC4)ncnc23)[C@H](F)C1 (relative stereo) [Example P160, 4-[2-(Cyclopropylmethoxy)-5-(difluoromethyl)phenyl]-N-[(1R*,2R*,4R*)-2-fluoro-4-(propanoylamino)cyclohexyl]-6-methyl-5H-pyrrolo[3,2-d]pyrimidine-7-carboxamide]
5 | < 1 nM | < 100 nM | CC(=O)N[C@H]1CC[C@H](NC(=O)c2c(C)[nH]c3c(-c4cc(C(F)F)ccc4OCC4CC4)ncnc23)CC1 [Example P6, N-[trans-4-(Acetylamino)cyclohexyl]-4-[2-(cyclopropylmethoxy)-5-(difluoromethyl)phenyl]-6-methyl-5H-pyrrolo[3,2-d]pyrimidine-7-carboxamide]
6 | < 1 nM | < 100 nM | Cc1ccc(OCC2CC2)c(-c2ncnc3c(C(=O)N[C@H]4CC[C@H](NC(=O)CO)CC4)c(C)[nH]c23)c1 [Example F53, 4-[2-(Cyclopropylmethoxy)-5-methylphenyl]-N-{trans-4-[(hydroxyacetyl)amino]cyclohexyl}-6-methyl-5H-pyrrolo[3,2-d]pyrimidine-7-carboxamide]

The next lines start with the compound.

Row | Compound | IC50 (PDE5A1) | IC50 (PDE4B1)
7 | CCC(=O)N[C@H]1CC[C@H](NC(=O)c2c(C)[nH]c3c(-c4cc(CC)ccc4OCC4CC4)ncnc23)CC1 [Example E149, 4-[2-(Cyclopropylmethoxy)-5-ethylphenyl]-6-methyl-N-[trans-4-(propanoylamino)cyclohexyl]-5H-pyrrolo[3,2-d]pyrimidine-7-carboxamide] | < 1 nM | < 100 nM
8 | COc1ccc(OCC2CC2)c(-c2ncnc3c(C(=O)N[C@H]4CC[C@H](NC(C)=O)CC4)c(C)[nH]c23)c1 [Example E69, N-(trans-4-acetamidocyclohexyl)-4-[2-(cyclopropylmethoxy)-5-methoxyphenyl]-6-methyl-5H-pyrrolo[3,2-d]pyrimidine-7-carboxamide] | < 1 nM | 100 to 1000 nM
9 | CCC(=O)N1CCC(NC(=O)c2c(C)[nH]c3c(-c4cc(OC)ccc4OCC4CC4)ncnc23)CC1 [Example E67, 4-[2-(Cyclopropylmethoxy)-5-methoxyphenyl]-6-methyl-N-(1-propionylpiperidin-4-yl)-5H-pyrrolo[3,2-d]pyrimidine-7-carboxamide] | < 1 nM | 100 to 1000 nM
10 | CC(=O)N[C@H]1CC[C@H](NC(=O)c2c(C)[nH]c3c(-c4cc(C)ccc4OCC4CC4)ncnc23)CC1 [Example E84, N-[trans-4-(acetylamino)cyclohexyl]-4-[2-(cyclopropylmethoxy)-5-methylphenyl]-6-methyl-5H-pyrrolo[3,2-d]pyrimidine-7-carboxamide] | < 1 nM | < 100 nM
